In PubChem BioAssay (NCI):
Values joined by “and” are separate entries in the source; they are usually repeats but may differ in a detail not shown here. Equal entries are not always repeated.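 Where inhibition never reached the appropriate level, the endpoint shown equals the highest concentration tested. Otherwise, values were interpolated linearly from a five-concentration, 48-hour dose response in 96-well plates. GI50: concentration for 50% inhibition of growth. TGI is the concentration that stops growth completely.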

How the values were obtained:
Experiment in all cases: NCI-60 cell line screen, 48 h
786-0 renal = system: 786-0 renal
HCT-15 colon = system: HCT-15 colon
HS 578T breast = system: HS 578T breast
MDA-MB-231 breast = system: MDA-MB-231 breast
NCI-H23 lung = system: NCI-H23 lung
OVCAR-5 ovarian = system: OVCAR-5 ovarian
SK-MEL-28 melanoma = system: SK-MEL-28 melanoma
SK-OV-3 ovarian = system: SK-OV-3 ovarian
SN12C renal = system: SN12C renal
SR leukemia = system: SR leukemia

Compound | TGI (786-0 renal) | TGI (HCT-15 colon) [µM] | TGI (HS 578T breast) | TGI (MDA-MB-231 breast) | TGI (NCI-H23 lung) | TGI (OVCAR-5 ovarian) | TGI (SK-MEL-28 melanoma) | TGI (SK-OV-3 ovarian) | TGI (SN12C renal) | TGI (SR leukemia) | GI50 (786-0 renal) [µM] | GI50 (HCT-15 colon) [µM] | GI50 (HS 578T breast) [µM] | GI50 (MDA-MB-231 breast) [µM] | GI50 (NCI-H23 lung) [µM] | GI50 (OVCAR-5 ovarian) [µM] | GI50 (SK-MEL-28 melanoma) [µM] | GI50 (SK-OV-3 ovarian) [µM] | GI50 (SN12C renal) [µM] | GI50 (SR leukemia)
O=CC(O)C(O)C(OC1OC(CO)C(O)C(O)C1O)C(O)CO (stereo not drawn) (tested in a mixture with another compound) | > 100 µM | 54 | > 100 µM | 91.5 µM | > 100 µM | > 100 µM | > 100 µM | > 100 µM | > 100 µM | 33.1 µM | – | – | – | – | – | – | – | – | – | –
CCN(CC)C(=O)CCCCCn1c2ccccc2c2c3c(c4c5ccccc5[nH]c4c21)C(=O)N(O)C3=O | 5.04 µM | > 100 | > 100 µM | 82.5 µM | 47.3 µM | > 100 µM | > 100 µM | 92.1 µM | > 100 µM | 13.6 µM | 2.12 | 4.07 | 5.05 | 5.52 | 3.33 | 31.1 | 5.38 | 22.2 | 4.03 | 1.56 µM
CCC1=C(c2ccc(OC)cc2)CC[C@]2(CCNC2=O)[C@@H]1C | > 100 µM | > 88.8 | 76.2 µM | > 100 µM | > 100 µM | > 100 µM | 74.1 µM | 97.1 µM | > 96.3 µM | 76.6 µM | – | – | – | – | – | – | – | – | – | –
CN1CC[C@]23c4c5ccc(O)c4OC2c2[nH]ncc2C[C@H]3[C@H]1C5 (stereo partly drawn) | > 100 µM | > 100 | > 100 µM | > 100 µM | > 100 µM | > 100 µM | > 100 µM | > 100 µM | > 100 µM | > 100 µM | – | – | – | – | – | – | – | – | – | –
CCOC(=O)n1c2ccccc2c(=O)n1CCO | > 100 µM | > 100 | > 100 µM | > 100 µM | > 100 µM | > 100 µM | > 100 µM | > 100 µM | > 100 µM | > 100 µM | – | – | – | – | – | – | – | – | – | –
O=C(Nc1cccc(-n2cc(-c3ccncc3)c(-c3ccc(O)c(Cl)c3)n2)c1)Nc1ccc(Cl)c(Cl)c1 | 7.12 µM | 8.52 | 7.1 µM | > 100 µM | 6.62 µM | 55.9 µM | 6.58 µM | > 100 µM | > 100 µM | 2.75 µM | 1.58 | 1.63 | 1.4 | 1.85 | 1.88 | 3.26 | 1.8 | 3.43 | 2.72 | 0.43 µM
CC(=O)OC1COC(Oc2c(C)c3c4c(c2O)[C@@H](C)CC[C@@H]4[C@@H](C)C[C@H]3C=C(C)C)C(O)C1O (stereo partly drawn) | 43.2 µM | 37.9 | > 100 µM | – | 33.2 µM | 37.3 µM | 57.3 µM | 44 µM | 46.8 µM | 25.7 µM | 19.2 | 17.9 | > 100 | – | 16.6 | 18.1 | 23.8 | 20.7 | 20.8 | 9.13 µM
COC(=O)c1ccc2c(c1)C(=O)c1c-2n(CCCCl)c(=O)c2cc(OC)c(OC)cc12 | > 100 µM | > 100 | > 100 µM | > 100 µM | > 100 µM | > 100 µM | > 100 µM | > 100 µM | > 100 µM | > 100 µM | > 100 | > 100 | > 100 | > 100 | > 100 | > 100 | > 100 | 44.1 | > 100 | 0.061 µM
CN(c1ccc(NC(=O)NCCN2CCOCC2)cc1)c1ccnc(Nc2ccc(CS(C)(=O)=O)cc2)n1 | > 25 µM | > 25 | > 25 µM | > 25 µM | > 25 µM | > 25 µM | > 25 µM | > 25 µM | > 25 µM | > 25 µM | > 25 | > 25 | > 25 | > 25 | > 25 | > 25 | > 25 | > 25 | > 25 | > 25 µM
COc1cc2c3c(n(CCCN4CCSCC4)c(=O)c2cc1OC)-c1cc2c(cc1C3=O)OCO2 | 75.5 µM | > 100 | > 100 µM | 89.9 µM | > 100 µM | > 100 µM | > 100 µM | > 100 µM | – | – | 25.2 | > 100 | 71.7 | 25.2 | > 100 | 53.6 | > 100 | 88.1 | – | –
N=C(N)c1ccc(OCCCCCOc2ccc(C(=N)N)cc2)cc1 | > 50 µM and 27.1 µM and 31.8 µM | > 100 | 32.2 µM and 33 µM and 38.5 µM | > 50 µM and 44.4 µM | > 50 µM and 25.4 µM and 29 µM | > 50 µM and 78.3 µM and > 100 µM | 12.3 µM and 21.9 µM and 49 µM | > 50 µM and 29.8 µM and 22.3 µM | 34.2 µM and 25 µM and 24.7 µM | 44.4 µM and 58.5 µM and > 100 µM | 12 | 7.57 | 7.64 | 8.69 | 3.34 | 34 | 5.46 | – | 2.02 | 13.3 µM and 13.6 µM and > 100 µM
COc1ccc(C(=O)/C=C/c2ccc(OCc3ccccc3)c(OC)c2)cc1OC | > 100 µM | > 100 | 71.4 µM | > 100 µM | 66.7 µM | > 100 µM | > 100 µM | 12.4 µM | > 100 µM | > 100 µM | 5.36 | 2.78 | 2.8 | 3.7 | 4.18 | 3.55 | 17.3 | 2.97 | 3.97 | 2.47 µM
CC(C)C/C(=N\NC(=O)c1ccncc1)c1cc(Cl)ccc1O | 11.8 µM | 98.9 | > 87.1 µM | > 46 µM | 33.5 µM | 38.9 µM | > 69.4 µM | 32.2 µM | > 52.5 µM | 29 µM | 0.412 | 0.0938 | 14.8 | 0.622 | 0.449 | 0.825 | 2.61 | 0.852 | 0.619 | 0.206 µM
O=S(=O)(NCCCNc1nccc(-c2c(-c3cccc(F)c3)nc3occn23)n1)c1cccc2ccccc12 | > 100 µM | > 100 | > 100 µM | > 100 µM | > 100 µM | > 100 µM | > 100 µM | > 100 µM | > 100 µM | > 100 µM | 4.94 | 3.31 | 8.36 | 3.13 | 14.8 | 9.6 | 23.6 | 3.76 | 3.44 | 8.79 µM
